In patent US20240269303A1, “CELL TARGETING CONSTRUCTS AND USES THEREOF” (Research Development Foundation, priority 2022, published 2024):
Square brackets hold non-standard residues; d marks the D form. Peptide text beside a SMILES is read from it. * marks the point of attachment. Dolaproine = CO[C@@H]([C@@H]1CCCN1)[C@@H](C)C(=O)O; Dil = CC[C@H](C)[C@H](NC)[C@@H](CC(=O)O)OC; X1 = C[C@@H](N*)[C@@H](O)c1ccccc1; NMeV = CN[C@H](C(=O)O)C(C)C

How the values were obtained:
[1] = test system: HEK293/LGR5 cells; experiment: Growth rate inhibition assay (CCK8, 120 h exposure); format: cell-based, human
[2] = test system: OVCAR8/LGR5 cells; experiment: as above; format: cell-based, human
[3] = test system: OVCAR8/EV cells; experiment: as above; format: cell-based, human; conditions: OVCAR8/EV (LGR5-poor) cells
[4] = molecular target: T1, LGR6 (Homo sapiens, UniProt Q9HBX8); conditions: read-out: affinity; cited from earlier work
T1 sequence (Q9HBX8 25-967): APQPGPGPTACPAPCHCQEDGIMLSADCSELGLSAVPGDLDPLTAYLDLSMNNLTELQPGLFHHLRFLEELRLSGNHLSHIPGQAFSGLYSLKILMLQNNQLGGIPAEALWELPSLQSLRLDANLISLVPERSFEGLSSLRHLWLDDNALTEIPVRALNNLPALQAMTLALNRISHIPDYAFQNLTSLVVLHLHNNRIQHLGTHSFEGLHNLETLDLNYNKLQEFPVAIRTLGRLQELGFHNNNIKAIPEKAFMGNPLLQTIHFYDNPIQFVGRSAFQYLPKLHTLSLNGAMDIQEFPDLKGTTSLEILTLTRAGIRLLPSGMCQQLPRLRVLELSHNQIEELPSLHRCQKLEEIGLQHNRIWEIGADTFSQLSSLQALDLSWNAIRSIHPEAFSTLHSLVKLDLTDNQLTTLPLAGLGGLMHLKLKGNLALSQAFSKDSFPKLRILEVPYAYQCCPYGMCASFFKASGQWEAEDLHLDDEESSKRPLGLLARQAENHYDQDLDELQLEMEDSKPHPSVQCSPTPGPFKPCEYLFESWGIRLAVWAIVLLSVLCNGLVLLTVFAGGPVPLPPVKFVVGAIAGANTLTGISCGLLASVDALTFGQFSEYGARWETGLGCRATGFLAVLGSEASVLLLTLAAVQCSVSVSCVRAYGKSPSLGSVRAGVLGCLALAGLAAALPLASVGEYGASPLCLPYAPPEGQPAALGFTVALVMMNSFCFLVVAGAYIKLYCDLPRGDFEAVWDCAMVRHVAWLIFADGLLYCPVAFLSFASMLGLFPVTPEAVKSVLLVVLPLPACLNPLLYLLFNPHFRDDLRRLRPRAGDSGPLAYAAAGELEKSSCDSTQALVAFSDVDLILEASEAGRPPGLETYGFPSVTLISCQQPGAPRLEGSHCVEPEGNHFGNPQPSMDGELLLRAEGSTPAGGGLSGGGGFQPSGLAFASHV

[5] = molecular target: T2, LGR5 (Homo sapiens, UniProt O75473); conditions: read-out: affinity; cited from earlier work
T2 sequence (O75473 22-907): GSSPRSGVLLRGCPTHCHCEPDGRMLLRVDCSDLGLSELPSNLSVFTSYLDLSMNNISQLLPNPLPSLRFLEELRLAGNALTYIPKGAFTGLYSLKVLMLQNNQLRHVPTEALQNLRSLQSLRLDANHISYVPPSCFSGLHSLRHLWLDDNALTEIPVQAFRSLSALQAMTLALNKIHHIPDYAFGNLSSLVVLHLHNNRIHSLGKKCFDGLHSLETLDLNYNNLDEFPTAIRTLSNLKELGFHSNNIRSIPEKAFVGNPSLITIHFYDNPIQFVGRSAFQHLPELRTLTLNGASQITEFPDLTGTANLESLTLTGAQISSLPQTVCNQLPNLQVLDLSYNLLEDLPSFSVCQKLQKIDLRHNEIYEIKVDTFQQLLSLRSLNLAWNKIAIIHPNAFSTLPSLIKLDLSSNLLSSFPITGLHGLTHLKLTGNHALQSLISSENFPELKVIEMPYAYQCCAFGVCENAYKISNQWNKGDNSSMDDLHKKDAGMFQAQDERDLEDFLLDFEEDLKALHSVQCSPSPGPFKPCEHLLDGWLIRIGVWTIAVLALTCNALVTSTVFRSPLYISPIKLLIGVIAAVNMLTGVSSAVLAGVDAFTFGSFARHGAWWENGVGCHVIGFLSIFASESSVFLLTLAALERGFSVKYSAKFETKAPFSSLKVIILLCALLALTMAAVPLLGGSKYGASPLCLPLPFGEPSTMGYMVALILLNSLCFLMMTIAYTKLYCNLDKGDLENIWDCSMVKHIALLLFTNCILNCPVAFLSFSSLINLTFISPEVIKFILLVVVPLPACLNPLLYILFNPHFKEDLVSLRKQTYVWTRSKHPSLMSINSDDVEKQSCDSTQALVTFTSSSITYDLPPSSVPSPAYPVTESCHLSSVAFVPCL

Molecule	HEK293/LGR5 cells more resistant than HEK293/EV cells [1] [fold]	OVCAR8/LGR5 cells more resistant than OVCAR8/EV cells [2] [fold]	IC50 ([2]; OVCAR8/LGR5 (LGR5-rich) cells, 120 h exposure, CCK8) [nM]	IC50 [3] [nM]	Kd [4] [nM]	Kd [5] [nM]
CC[C@H](C)[C@@H]([C@@H](CC(=O)N1CCC[C@H]1[C@H](OC)[C@@H](C)C(=O)N[C@H](C)[C@@H](O)c1ccccc1)OC)N(C)C(=O)[C@@H](NC(=O)[C@@H](NC)C(C)C)C(C)C [free MMAE, Monomethyl auristatin E, reference compound] (H-[NMeV]V[Dil][Dolaproine]-X1)	1.6	1.5	129	85		
Fu1-Fu2 domain of RSPO1: receptor-binding Fu1-Fu2 domain of human RSPO1					~3	~3
